Values quoted from earlier work, collected in US20020035459A1, “PHARMACOKINETIC-BASED DRUG DESIGN TOOL AND METHOD” (priority 1998, published 2002).

Key:
[1] = system: rabbit intestinal tissue; settings: donor concentration per compound; for Pe Colon: rabbit colon; for Pe Duodenum: rabbit duodenum; for Pe Ileum: rabbit ileum; for Pe Jejunum: rabbit jejunum
[2] = system: intestinal mucosa; settings: permeability standards
[3] = plasma kinetics, first order transfer

SMILES	Pe Colon [1]	Pe Duodenum [1]	Pe Ileum [1]	Pe Jejunum [1]	Transport mechanism [2]	k21 [3]
OC[C@@H](O)[C@@H](O)[C@H](O)[C@H](O)CO [mannitol]	5.53 ×10⁻⁶ cm/s	1.73 ×10⁻⁶ cm/s	4.02 ×10⁻⁶ cm/s	3.54 ×10⁻⁶ cm/s	Passive Paracellular	
Nc1nc2c(ncn2COC(CO)CO)c(=O)[nH]1.[Na] [Gancyclovir, 9-(1,3-dihydroxy-2-propoxymethyl)guanine, monosodium salt]						0.670
C[C@]12CCC(=O)C=C1CC[C@@H]1[C@@H]2[C@@H](O)C[C@@]2(C)[C@H]1CC[C@]2(O)C(=O)CO [hydrocortisone]	3.85 ×10⁻⁶ cm/s	0.3 ×10⁻⁶ cm/s	2.91 ×10⁻⁶ cm/s	1.31 ×10⁻⁶ cm/s		
O=C[C@H](O)[C@@H](O)[C@H](O)[C@H](O)CO [D-glucose]	9.28 ×10⁻⁶ cm/s	4.55 ×10⁻⁶ cm/s	14.5 ×10⁻⁶ cm/s	10.2 ×10⁻⁶ cm/s	Carrier-mediated Influx	
